Measured values as given in patent US11203577B2, “Sulfonyl-structure-containing triazinone derivatives, their preparation methods and their uses in insect killing and/or bacterium killing” (Nankai University, priority 2017, dated 2021).
Read-outs that look alike come from different tables or passages of the source.

How the values were obtained:
[1] = system: Sclerotinia rot of colza; assay: In vitro fungicidal activity, PDA colony diameter; format: cell-based; settings: 96 h, 50 mg/kg, inhibition of colony diameter, read-out: Fungicidal activity (%) Sclerotinia rot of colza
[2] = system: Watermelon anthracnose; assay: In vitro fungicidal activity, PDA colony diameter; format: cell-based; settings: 50 mg/kg, inhibition of colony diameter; read-out: Fungicidal activity (%) Watermelon anthracnose
[3] = system: Rice bakanae disease; assay: In vitro fungicidal activity, PDA colony diameter; format: cell-based; settings: 50 mg/kg, inhibition of colony diameter; read-out: Fungicidal activity (%) Rice bakanae disease
[4] = system: Corn southern leaf blight; assay: In vitro fungicidal activity, PDA colony diameter; format: cell-based; settings: 50 mg/kg, inhibition of colony diameter; read-out: Fungicidal activity (%) Corn southern leaf blight
[5] = system: Tomato early blight; assay: In vitro fungicidal activity, PDA colony diameter; format: cell-based, Alternaria solani; settings: read-out: Fungicidal activity (%) Tomato early blight
[6] = system: Cucumber fusarium wilt; assay: In vitro fungicidal activity, PDA colony diameter; format: cell-based; settings: 96 h, 50 mg/kg, inhibition of colony diameter, read-out: Fungicidal activity (%) Cucumber fusarium wilt
[7] = system: Rice sheath blight; assay: In vitro fungicidal activity, PDA colony diameter; format: cell-based; settings: 50 mg/kg, inhibition of colony diameter; read-out: Fungicidal activity (%) Rice sheath blight
[8] = system: Wheat sheath blight; assay: In vitro fungicidal activity, PDA colony diameter; format: cell-based; settings: 50 mg/kg, inhibition of colony diameter; read-out: Fungicidal activity (%) Wheat sheath blight
[9] = system: Capsicum phytophthora blight; assay: In vitro fungicidal activity, PDA colony diameter; format: cell-based; settings: 96 h
Description: (§1) Here, the test is described in an example of Alternaria solani; it can be replaced by other fungi.
(§2) In vitro testing method: Alternaria solani is inoculated to a PDA culture medium and cultured for 7 days, a fungus dish with a diameter of […] is prepared on the periphery of the colony with a punch and inoculated to a PDA culture medium that contains pesticide at a concentration of 50 mg/kg and a PDA culture medium that doesn't contain the pesticide, and are cultured for 4 days respectively; then, the colony diameters are measured, and the inhibition percentages of the pesticides are calculated by comparing with the control sample.

[10] = system: Apple ring rot; assay: In vitro fungicidal activity, PDA colony diameter; format: cell-based; settings: inhibition of colony diameter
Description: as §1, §2

[11] = system: Cercospora brown spot of peanut; assay: In vitro fungicidal activity, PDA colony diameter; format: cell-based; settings: 96 h, 50 mg/kg, inhibition of colony diameter, read-out: Fungicidal activity (%) Cercospora brown spot of peanut
[12] = system: Potato late blight; assay: microbe, parasite or virus in culture; format: cell-based; settings: Phytophthora infestans, 96 h, read-out: Fungicidal activity (%) Potato late blight
[13] = system: Wheat head blight; assay: whole plant or invertebrate; format: cell-based; settings: Triticum aestivum, read-out: Fungicidal activity (%) Wheat head blight
[14] = system: Armyworms; assay: Test of insecticidal activity against armyworms (leaf immersion); settings: 600 mg/kg, 3-4 days
[15] = system: Maize borers; assay: Test of insecticidal activity against maize borers (leaf immersion); settings: read-out: Mortalities (%) Maize borers
[16] = system: Cotton bollworms; assay: Test of insecticidal activity against cotton bollworms (pesticide mixed into feedstuff); settings: read-out: Mortalities (%) Cotton bollworms
Description: Method of testing against cotton bollworms: the pesticide is mixed into the feedstuff, i.e., 3 mL prepared solution is added into about 27 g freshly prepared feedstuff; thus, required concentration is obtained by diluting by 10 times.

[17] = system: mosquito larvae (Culer pipiens pallens); assay: Test of insecticidal activity against mosquito larvae (checked after 24 h); settings: 24 h, read-out: Mortalities (%) against mosquito larvae
[18] = system: bean aphides (Aphis laburni Kaltenbach); assay: Test of insecticidal activity against aphides (leaf immersion, checked after 96 h); settings: Aphis, 96 h, read-out: Mortalities (%) against aphides
[19] = 50 mg/kg, inhibition of colony diameter

Compound	inhibition of growth at 50 mg/kg [1] [%]	inhibition at 50 mg/kg [2] [%]	inhibition at 50 mg/kg [3] [%]	inhibition at 50 mg/kg [4] [%]	inhibition at 50 mg/kg [5, 19] [%]	inhibition of growth at 50 mg/kg [6] [%]	inhibition at 50 mg/kg [7] [%]	inhibition at 50 mg/kg [8] [%]	inhibition of growth at 50 mg/kg [9] [%]	inhibition at 50 mg/kg [10] [%]	inhibition of growth at 50 mg/kg [11] [%]	inhibition of growth at 50 mg/kg [12] [%]	inhibition at 50 mg/kg [13] [%]	Mortalities (%) Armyworms [14] [%]	mortality at 600 mg/kg [15] [%]	mortality at 600 mg/kg [16] [%]	mortality at 10 mg/kg [17] [%]	mortality at 10 mg/kg [18] [%]	mortality at 100 mg/kg [18] [%]	mortality at 600 mg/kg [18] [%]	further results
COC(=O)Nc1nc2ccccc2[nH]1 [Carbendazim, reference compound]	100	100	< 50	100	< 50	< 50	100	100	< 50	< 50	< 50	100	100								
N#Cc1c(Cl)c(Cl)c(Cl)c(C#N)c1Cl [Chlorothalonil, reference compound]	< 50	91.3	100	91.3	73.3	100	100	100	100	100	73.3	86.4	< 50								
CC1=NNC(=O)N(NS(C)(=O)=O)C1 [Ia-1, N-(6-methyl-3-oxo-2,3-dihydro-1,2,4-triazin-4(5H)-yl)-methylsulfonylamide]	31.7	20.8	27.8	20.8	9.5	0	11.1	63.6	46.9	31	26.3	33.3	13.3	5	0	40	55	100	100	100	mortality at 5 mg/kg [18]: 25%
CCS(=O)(=O)NN1CC(C)=NNC1=O [Ia-2, N-(6-methyl-3-oxo-2,3-dihydro-1,2,4-triazin-4(5H)-yl)-ethylsulfonamide]	56.7	33.3	50	29.2	33.3	5	34.9	63.6	36.7	20.7	15.8	22.2	20	10	15	5	20	50	90	100	
CCCS(=O)(=O)NN1CC(C)=NNC1=O [Ia-3, N-(6-methyl-3-oxo-2,3-dihydro-1,2,4-triazin-4(5H)-yl)-n-propylsulfonamide]	35	12.5	16.7	16.7	0	0	14.3	47.7	24.5	0	26.3	22.2	3.3	25	20	10	55	40	75	95	
CC1=NNC(=O)N(NS(=O)(=O)C2CC2)C1 [Ia-5, N-(6-methyl-3-oxo-2,3-dihydro-1,2,4-triazin-4(5H)-yl)-cyclopropylsulfonamide]	21	16.4	20.7	18.7	14.9	8.8	19.8	8.7	5.6	10.8	8	64.5	10.8	10	10	15	10	30	85	100	
CC1=NNC(=O)N(NS(=O)(=O)C2CCCCC2)C1 [Ia-6, N-(6-methyl-3-oxo-2,3-dihydro-1,2,4-triazin-4(5H)-yl)-cyclohexylsulfonamide]	31.6	12.5	12.5	7.7	12.9	20.6	11.6	30.9	18.8	39.2	13	3.1	10.9	50	40	30	70		45	85	
CC1=NNC(=O)N(NS(=O)(=O)Cc2ccccc2)C1 [Ia-7, N-(6-methyl-3-oxo-2,3-dihydro-1,2,4-triazin-4(5H)-yl)-phenylmethylsulfonamide]	31.7	20.8	38.9	20.8		0	30.2	63.6	36.7	41.4	15.8	33.3	30	0	0	35	70	20	75	100	inhibition at 50 mg/kg [5]: 33.3%
CC1=NNC(=O)N(NS(=O)(=O)c2cccc3ccccc23)C1 [Ia-8, N-(6-methyl-3-oxo-2,3-dihydro-1,2,4-triazin-4(5H)-yl)-naphthyl-1-sulfonamide]	16.7	0	7.4	8.3	20	20.5	17.9	30.2	26.9	0	19.2	28.6	33.3	10	0	0	15	25	85	90	
